The test has as its system P388 leukemia ip, CD2F1 mice, survival T/C. Briefly: NCI In Vivo Anticancer Drug Screen. Data for tumor model P388 Leukemia (intraperitoneal) in CD2F1 (CDF1) mice. Particulars: endpoint: median survival time, higher = longer survival. In short, it runs like this:
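Mice carrying the transplanted tumor received test compound or vehicle. Survival was recorded in each group, and the value is the treated-group measurement divided by that of the vehicle-treated control group.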

[1] abbreviates: dose: 60.0 mg/kg/injection, schedule: Q01DX005 (ip), vehicle: saline with Tween-80.
Where [2] appears, read: dose: 120.0 mg/kg/injection, schedule: Q01DX005 (ip), vehicle: saline with Tween-80.
The mark [3] stands for this setting: dose: 240.0 mg/kg/injection, schedule: Q01DX005 (ip), vehicle: saline with Tween-80.
The mark [4] stands for this setting: dose: 50.0 mg/kg/injection, schedule: Q01DX005 (ip), vehicle: saline.
Setting [5] is: dose: 50.0 mg/kg/injection, schedule: Q01DX005 (ip), vehicle: saline with Tween-80.
[6] abbreviates: dose: 100.0 mg/kg/injection, schedule: Q01DX005 (ip), vehicle: saline with Tween-80.
Where [7] appears, read: dose: 200.0 mg/kg/injection, schedule: Q01DX005 (ip), vehicle: saline with Tween-80.
[8] abbreviates: dose: 50.0 mg/kg/injection, schedule: Q04DX003 (ip), vehicle: saline with Tween-80.
[9] abbreviates: dose: 100.0 mg/kg/injection, schedule: Q04DX003 (ip), vehicle: saline with Tween-80.
The mark [10] stands for this setting: dose: 200.0 mg/kg/injection, schedule: Q04DX003 (ip), vehicle: saline with Tween-80.

SMILES strings stand for the structures. Values joined by “and” are separate entries in the source; they are usually repeats but may differ in a detail not shown here. Equal entries are not always repeated. Inconclusive results and toxic doses are left out.

For the molecule `C=C1C(=O)OC2CC(C)(O)C(O)CC3OC3(C)CC(OC(=O)/C(C)=C/C)C12` (configuration not stated), the T/C was 99 % of control (dose: 1.25 mg/kg/injection, schedule: Q01DX005 (ip), vehicle: Klucel (hydroxypropylcellulose) (HPC)); 101 % of control (dose: 2.5 mg/kg/injection, schedule: Q01DX005 (ip), vehicle: Klucel (hydroxypropylcellulose) (HPC)); 108 % of control (dose: 5.0 mg/kg/injection, schedule: Q01DX005 (ip), vehicle: Klucel (hydroxypropylcellulose) (HPC)); 110 % of control (dose: 10.0 mg/kg/injection, schedule: Q01DX005 (ip), vehicle: Klucel (hydroxypropylcellulose) (HPC)).
Turning to `O=C(CCSCCCl)Nc1c(C(=O)O)cc([N+](=O)[O-])cc1[N+](=O)[O-]`, the T/C reads like this: (dose: 3.13 mg/kg/injection, schedule: Q04DX003 (ip), vehicle: DMSO) 94 % of control; (dose: 6.25 mg/kg/injection, schedule: Q04DX003 (ip), vehicle: DMSO) 100 % of control; (dose: 12.5 mg/kg/injection, schedule: Q04DX003 (ip), vehicle: DMSO) 102 % of control; (dose: 25.0 mg/kg/injection, schedule: Q04DX003 (ip), vehicle: DMSO) 111 % of control; (dose: 50.0 mg/kg/injection, schedule: Q04DX003 (ip), vehicle: DMSO) 102 % of control and 109 % of control; (dose: 100.0 mg/kg/injection, schedule: Q04DX003 (ip), vehicle: DMSO) 116 % of control.
For `O=C(Cc1nc2cc(Cl)c(Cl)cc2nc1CC(=O)c1ccccc1)c1ccccc1`, the T/C by setting is: under setting [1], 102 % of control; under setting [2], 94 % of control; under setting [3], 96 % of control.
Turning to `CC1CCP(=O)(c2ccccc2)C1` (configuration not stated), the T/C is 104 % of control under setting [4]; 105 % of control (dose: 100.0 mg/kg/injection, schedule: Q01DX005 (ip), vehicle: saline); 105 % of control (dose: 200.0 mg/kg/injection, schedule: Q01DX005 (ip), vehicle: saline).
For the molecule `COc1ccc(C(=O)C2C(C(=O)c3ccccc3)C23C(=O)N(C)c2ccccc23)cc1` (configuration not stated), the T/C reads like this: (dose: 25.0 mg/kg/injection, schedule: Q04DX002 (ip), vehicle: saline with Tween-80) 101 % of control; (dose: 50.0 mg/kg/injection, schedule: Q04DX002 (ip), vehicle: saline with Tween-80) 100 % of control; (dose: 100.0 mg/kg/injection, schedule: Q04DX002 (ip), vehicle: saline with Tween-80) 98 % of control.
In the case of `C=C1C(=O)C2CCN1CC2`, the T/C was 105 % of control and 110 % of control and 113 % of control under setting [5]; 113 % of control and 116 % of control (2×) under setting [6]; 111 % of control and 116 % of control under setting [7].
Regarding `CCN(CC)CCOc1ccccc1/C=C/c1noc2ccccc12`, the T/C reads like this: (dose: 15.0 mg/kg/injection, schedule: Q01DX005 (ip), vehicle: saline) 94 % of control; (dose: 30.0 mg/kg/injection, schedule: Q01DX005 (ip), vehicle: saline) 91 % of control; (dose: 60.0 mg/kg/injection, schedule: Q01DX005 (ip), vehicle: saline) 98 % of control.
For `CCOC(=O)CCc1[nH]c(=S)ncc1C(=O)OCC`, the T/C is 96 % of control (dose: 7.5 mg/kg/injection, schedule: Q01DX009 (ip), vehicle: saline with Tween-80); 101 % of control (dose: 15.0 mg/kg/injection, schedule: Q01DX009 (ip), vehicle: saline with Tween-80); 104 % of control (dose: 30.0 mg/kg/injection, schedule: Q01DX009 (ip), vehicle: saline with Tween-80).
`O=C1Cc2ccccc2N1C(=O)c1ccccc1Br`: the T/C reads like this: (dose: 100.0 mg/kg/injection, schedule: Q01DX001 (ip), vehicle: Klucel (hydroxypropylcellulose) (HPC)) 106 % of control; (dose: 200.0 mg/kg/injection, schedule: Q01DX001 (ip), vehicle: Klucel (hydroxypropylcellulose) (HPC)) 98 % of control; (dose: 400.0 mg/kg/injection, schedule: Q01DX001 (ip), vehicle: Klucel (hydroxypropylcellulose) (HPC)) 90 % of control.
On to `Cc1coc2c1C(OC(=O)C(C)C)C1(C)C(C)CCC(O)C1C2=O` (configuration not stated), for which the T/C was 100 % of control (dose: 1.56 mg/kg/injection, schedule: Q01DX009 (ip), vehicle: saline with Tween-80); 96 % of control (dose: 3.13 mg/kg/injection, schedule: Q01DX009 (ip), vehicle: saline with Tween-80); 93 % of control (dose: 6.25 mg/kg/injection, schedule: Q01DX009 (ip), vehicle: saline with Tween-80); 94 % of control (dose: 12.5 mg/kg/injection, schedule: Q01DX009 (ip), vehicle: Klucel (hydroxypropylcellulose) (HPC)); 109 % of control (dose: 12.5 mg/kg/injection, schedule: Q01DX009 (ip), vehicle: saline with Tween-80); 97 % of control (dose: 50.0 mg/kg/injection, schedule: Q01DX009 (ip), vehicle: Klucel (hydroxypropylcellulose) (HPC)). For the same molecule, the T/C (dose: 100.0 mg/kg/injection, schedule: Q01DX009 (ip), vehicle: Klucel (hydroxypropylcellulose) (HPC)) is 114 % of control.
Take `CN1C(=O)C(=CN(C)c2ccccc2)C(=O)N(C)C1=O`: the T/C reads like this: (dose: 25.0 mg/kg/injection, schedule: Q04DX003 (ip), vehicle: saline with Tween-80) 111 % of control; under setting [8], 112 % of control; under setting [9], 114 % of control and 96 % of control.
As for `CC(NNC(=S)N1CCN(c2ccccn2)CC1)c1cccc[n+]1[O-]` (configuration not stated), the T/C is, setting by setting: under setting [5], 103 % of control; under setting [6], 100 % of control; under setting [7], 91 % of control.
Take `CC1(C)OC2OC3COP(=O)(c4ccccc4)C3(CC#N)C2O1` (configuration not stated): the T/C reads like this: under setting [1], 94 % of control; under setting [2], 99 % of control; under setting [3], 98 % of control.
Turning to `OCC1(O)OCC(O)C(O)C1O` (configuration not stated), the T/C runs as follows: (dose: 100.0 mg/kg/injection, schedule: Q01DX009 (ip), vehicle: saline) 99 % of control; (dose: 200.0 mg/kg/injection, schedule: Q01DX009 (ip), vehicle: saline) 98 % of control; (dose: 400.0 mg/kg/injection, schedule: Q01DX009 (ip), vehicle: saline) 105 % of control.
Regarding `N#C/C1=C(\C#N)N=Cc2ccccc2NCCNc2ccccc2C=N1`, the T/C (dose: 100.0 mg/kg/injection, schedule: Q04DX003 (ip), vehicle: saline) was 91 % of control; the T/C (dose: 200.0 mg/kg/injection, schedule: Q04DX003 (ip), vehicle: saline) is 98 % of control; the T/C (dose: 400.0 mg/kg/injection, schedule: Q04DX003 (ip), vehicle: saline) is 100 % of control.
On to `CCCCOC(=O)c1ccccn1`, for which the T/C is 95 % of control under setting [8], 100 % of control under setting [9] and 95 % of control under setting [10].
With `CC(=O)Oc1c(I)cc(Cc2nc(C)oc2C)cc1I`, the T/C reads like this: (dose: 100.0 mg/kg/injection, schedule: Q01DX001 (ip), vehicle: saline) 99 % of control; (dose: 200.0 mg/kg/injection, schedule: Q01DX001 (ip), vehicle: saline) 102 % of control; (dose: 400.0 mg/kg/injection, schedule: Q01DX001 (ip), vehicle: saline) 102 % of control.
`CN(C)C1c2cc(Cl)ccc2-c2c(Cl)cc(Cl)cc21` (configuration not stated): the T/C runs as follows: (dose: 50.0 mg/kg/injection, schedule: Q01DX005 (ip), vehicle: Klucel (hydroxypropylcellulose) (HPC)) 100 % of control and 91 % of control; (dose: 100.0 mg/kg/injection, schedule: Q01DX005 (ip), vehicle: Klucel (hydroxypropylcellulose) (HPC)) 96 % of control; (dose: 200.0 mg/kg/injection, schedule: Q01DX005 (ip), vehicle: Klucel (hydroxypropylcellulose) (HPC)) 91 % of control and 92 % of control.
As for `N#Cc1c(-c2ccc(Cl)cc2)c(-c2ccc(Cl)cc2)nn(CCOC(=O)CN)c1=O`, the T/C by setting is: (dose: 3.13 mg/kg/injection, schedule: Q01DX005 (ip), vehicle: distilled water + Tween-80) 99 % of control and 100 % of control; (dose: 6.25 mg/kg/injection, schedule: Q01DX005 (ip), vehicle: distilled water + Tween-80) 100 % of control and 103 % of control; (dose: 12.5 mg/kg/injection, schedule: Q01DX005 (ip), vehicle: distilled water + Tween-80) 105 % of control and 115 % of control and 97 % of control; (dose: 12.5 mg/kg/injection, schedule: Q04DX002 (ip), vehicle: distilled water + Tween-80) 103 % of control; (dose: 25.0 mg/kg/injection, schedule: Q01DX005 (ip), vehicle: distilled water + Tween-80) 108 % of control and 120 % of control (2×); (dose: 25.0 mg/kg/injection, schedule: Q04DX002 (ip), vehicle: distilled water + Tween-80) 111 % of control and 112 % of control. In addition, the T/C runs as follows: (dose: 50.0 mg/kg/injection, schedule: Q01DX005 (ip), vehicle: distilled water + Tween-80) 155 % of control; under setting [4], 116 % of control.
Regarding `C/C(=C\N1CCN(c2ccc(Cl)cc2)C(C)C1)C(=O)c1ccccc1` (configuration not stated), the T/C runs as follows: under setting [9], 94 % of control; under setting [10], 88 % of control.
